The values below are quoted from earlier work in article PMC6318333, “A chemical biology toolbox to study protein methyltransferases and epigenetic signaling” (Nature Communications, 2019).

pIC50: −log10 of the molar value.

For orientation: pIC50 means the IC50 on a negative log10 scale, so that one unit is a factor of ten.

For the series, the target named is T1, SMYD3 (Homo sapiens, UniProt Q9H7B4).
T1 sequence (Q9H7B4 1-428): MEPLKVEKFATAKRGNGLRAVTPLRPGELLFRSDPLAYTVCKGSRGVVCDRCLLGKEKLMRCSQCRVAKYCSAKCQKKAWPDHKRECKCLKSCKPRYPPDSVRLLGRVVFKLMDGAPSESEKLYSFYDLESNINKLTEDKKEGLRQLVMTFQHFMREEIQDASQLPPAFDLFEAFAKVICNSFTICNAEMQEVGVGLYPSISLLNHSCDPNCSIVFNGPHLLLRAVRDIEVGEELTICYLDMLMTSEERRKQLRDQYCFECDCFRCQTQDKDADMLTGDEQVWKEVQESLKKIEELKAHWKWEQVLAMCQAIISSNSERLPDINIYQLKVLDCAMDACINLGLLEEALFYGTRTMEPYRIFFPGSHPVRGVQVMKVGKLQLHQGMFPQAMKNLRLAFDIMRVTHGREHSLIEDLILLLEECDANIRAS
The experiment in a line: biochemical methyltransferase assay with recombinant protein. As to conditions: read-out: In vitro IC50 or Kd.

Turning to BAY-6035, the pIC50 is 7.06.
